Our source for the IC50 values is patent US8648201B2, “Aminopyridine derivatives for treating tumors and inflammatory diseases” (MERCK PATENT GmbH, priority 2009, dated 2014).

Experiment [1] addresses T1, PDK1 (Homo sapiens, UniProt O15530).
T1 construct: His6 (N)
T1 sequence (O15530 51-556 limits assumed): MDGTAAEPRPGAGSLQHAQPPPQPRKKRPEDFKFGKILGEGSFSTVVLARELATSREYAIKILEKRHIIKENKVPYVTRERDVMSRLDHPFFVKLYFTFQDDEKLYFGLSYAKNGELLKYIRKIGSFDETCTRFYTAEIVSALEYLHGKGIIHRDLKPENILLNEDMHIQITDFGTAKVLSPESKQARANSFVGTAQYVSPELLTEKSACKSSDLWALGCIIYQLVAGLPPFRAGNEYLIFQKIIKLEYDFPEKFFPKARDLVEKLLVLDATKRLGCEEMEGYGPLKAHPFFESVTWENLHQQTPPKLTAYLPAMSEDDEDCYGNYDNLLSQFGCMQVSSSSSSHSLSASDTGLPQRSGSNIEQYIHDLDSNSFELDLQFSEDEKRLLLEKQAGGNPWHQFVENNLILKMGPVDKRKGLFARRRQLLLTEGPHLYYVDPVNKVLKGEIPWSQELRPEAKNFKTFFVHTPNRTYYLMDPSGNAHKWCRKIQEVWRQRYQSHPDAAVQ
The experiment can be described thus: Test for the inhibition of PDK1 (flashplate, 33P-ATP). The experiment is classed as biochemical. The settings on record: enzyme. On the procedure:
The experimental batches are carried out in a flashplate system with 384 wells/microtitration plate.
In each case, the PDK1 sample His6-PDK1(1-50)(3.4 nM), the PDK1 substrate biotin-bA-bA-[…] (400 nM), 4 μM ATP (with 0.2 μCi of ^33P-ATP/well) and the test substance in 50 μl of conventional experimental solution per well are incubated at 30° C. for 60 min. The test substances are employed in corresponding concentrations (if desired in a dilution series). The control is carried out without test substance. The reaction is stopped using standard methods and washed. The activity of the kinase is measured via the incorporated radioactivity in top count. In order to determine the non-specific kinase reaction (blank value), the experimental batches are carried out in the presence of 100 nM staurosporin.
The radioactivity (decompositions per minute) of the blank value (no use of test substance in the presence of staurosporin) is subtracted from all other radioactivity values. The controls (kinase activity without test substance) are set equal to 100 percent and all other radioactivity values (after subtracting the blank value) are expressed set in relation thereto (for example in % of the control).
IC50 values (50% inhibition) are determined with the aid of statistics programmes, such as, for example, RS1.

Experiment [2] addresses T2, PDK1 (Homo sapiens, UniProt O15530).
T2 construct: endogenous in cells; host or cells: commercially available colon carcinoma, ovary, prostate or breast cell lines (none named)
T2 sequence (O15530 1-556): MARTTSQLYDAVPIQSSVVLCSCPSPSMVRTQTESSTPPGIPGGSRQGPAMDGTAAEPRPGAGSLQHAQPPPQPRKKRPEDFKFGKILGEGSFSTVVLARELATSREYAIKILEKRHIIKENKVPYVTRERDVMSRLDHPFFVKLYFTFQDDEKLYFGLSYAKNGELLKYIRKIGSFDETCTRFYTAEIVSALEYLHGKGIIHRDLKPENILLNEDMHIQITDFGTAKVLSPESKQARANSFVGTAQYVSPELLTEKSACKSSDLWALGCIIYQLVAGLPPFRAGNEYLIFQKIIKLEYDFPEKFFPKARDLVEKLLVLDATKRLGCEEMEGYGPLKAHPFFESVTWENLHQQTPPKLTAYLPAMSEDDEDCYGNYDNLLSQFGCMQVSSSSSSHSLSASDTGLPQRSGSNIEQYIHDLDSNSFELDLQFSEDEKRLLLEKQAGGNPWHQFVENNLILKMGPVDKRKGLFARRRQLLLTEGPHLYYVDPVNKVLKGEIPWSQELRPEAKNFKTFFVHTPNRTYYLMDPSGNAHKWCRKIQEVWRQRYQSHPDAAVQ
The experiment can be described thus: IC50 PDK1 (cell). The experiment is classed as cell-based. On the procedure:
The cells are sown in a suitable cell density in microtitre plates (96-well format) and the test substances are added in the form of a concentration series. After four further days of cultivation in serum-containing medium, the tumour cell proliferation/tumour cell vitality can be determined by means of an Alamar Blue test system. A defined number of cells (for example 2000 cells) per culture/well in a volume of 180 μl of culture medium are sown in microtitre plates (96 well cell-culture plates) using a multichannel pipette. The cells are subsequently cultivated in a CO2 incubator (37° C. and 10% CO2). The test substances are dissolved, for example, in DMSO and subsequently employed in corresponding concentration (if desired in a dilution series) in the cell culture medium. The dilution steps can be adapted depending on the efficiency of the active ingredients and the desired spread of the concentrations. Cell culture medium is added to the test substances in corresponding concentrations. The addition of the test substances to the cells can take place on the same day as the sowing of the cells. To this end, in each case 20 μl of substance solution from the predilution plate are added to the cultures/wells. The cells are cultivated for a further 4 days at 37° Celsius and 10% CO2. In each case, 20 μl of Alamar Blue reagent are added per well, and the microtitre plates are incubated, for example, for a further seven hours in a CO2 incubator (at 37° C. and 10% CO2). The plates are measured in a reader with a fluorescence filter at a wavelength of 540 nm. The plates can be shaken gently immediately before the measurement. The absorbance value of the medium control (no cells and test substances used) is subtracted from all other absorbance values. The controls (cells without test substance) are set equal to 100 percent, and all other absorbance values are set in relation thereto (for example in % of control): Calculation: 100*(value with cells and test substance−value of medium control)/(value with cells−value of medium control) IC50 values (50% inhibition) are determined with the aid of statistics programs, such as, for example, RS1.

The next experiment addresses T3, IRAK-1 (Homo sapiens, UniProt P51617).
T3 construct: His6 (N); Dr.Jaekel Pool B, 232Y08C1.IRK
The experiment can be described thus: Test for the inhibition of IRAK1 (autophosphorylation, flashplate). The experiment is classed as biochemical. The settings on record: enzyme. On the procedure: (§1) The experimental batches are carried out in a flashplate system with 384 wells/microtitre plate. In each case, in order to investigate the inhibition of the autophosphorylation activity of IRAK1, the IRAK1 sample His6-IRAK1 (5.1 nM), 1 μM ATP (with 0.25 μCi of ^33P-ATP/well) and the test substance in 50 μl of conventional experimental solution per well are incubated at 22° C. for 180 min. The test substances are employed in corresponding concentrations (if desired in a dilution series). The control is carried out without test substance. The reaction is stopped using standard methods and washed. The activity of the kinase is measured via the incorporated radioactivity in top count. In order to determine the non-specific kinase reaction (blank value), the experimental batches are carried out in the presence of 1 μM staurosporin. The radioactivity (decompositions per minute) of the blank value (no use of test substance in the presence of 1 μM staurosporin) is subtracted from all other radioactivity values. The controls (kinase activity without test substance) are set equal to 100 percent and all other radioactivity values (after subtracting the blank value) are expressed set in relation thereto (for example in % of the control). IC50 values (50% inhibition) are determined with the aid of statistics programs, such as, for example, RS1.

Experiment [3] addresses T4, IRAK-4 (Homo sapiens, UniProt Q9NWZ3).
T4 construct: His6 (N); Dr.Jaekel
T4 sequence (Q9NWZ3 1-460): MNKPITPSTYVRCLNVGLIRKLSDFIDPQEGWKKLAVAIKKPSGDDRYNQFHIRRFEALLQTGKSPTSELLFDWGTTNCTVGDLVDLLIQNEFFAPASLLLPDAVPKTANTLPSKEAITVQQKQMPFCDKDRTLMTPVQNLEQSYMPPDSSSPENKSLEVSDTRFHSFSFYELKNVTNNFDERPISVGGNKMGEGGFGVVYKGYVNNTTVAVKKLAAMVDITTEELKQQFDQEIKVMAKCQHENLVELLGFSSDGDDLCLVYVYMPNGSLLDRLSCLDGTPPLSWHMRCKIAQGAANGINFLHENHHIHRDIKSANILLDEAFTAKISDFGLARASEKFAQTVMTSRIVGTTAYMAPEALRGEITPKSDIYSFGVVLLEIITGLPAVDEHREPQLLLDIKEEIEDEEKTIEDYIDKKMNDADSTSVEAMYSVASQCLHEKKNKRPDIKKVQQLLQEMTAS
The experiment can be described thus: Test for the inhibition of IRAK4 (flashplate, 33P-ATP). Particulars: enzyme. The experiment is classed as biochemical. The protocol:
as §1, with “case,” for “case, in order to investigate”, “the IRAK4 sample His6-IRAK4 (7.3 nM),” for “the inhibition of”, “the biotinylated substrate peptide STK substrate 1-biotin (Cisbio Bioassays, France) (300” for “the autophosphorylation activity of IRAK1, the IRAK1 sample His6-IRAK1 (5.1”, “nM), 10” for “nM), 1”

For experiment [4], the target named is T4, IRAK-4. The experiment is described as follows: IC50 IRAK-4 (cell). The experiment is classed as cell-based.

By IC50 is commonly meant the concentration that gives 50% inhibition. A low value points to higher potency.

T3 sequence (P51617 whole entry, species assumed): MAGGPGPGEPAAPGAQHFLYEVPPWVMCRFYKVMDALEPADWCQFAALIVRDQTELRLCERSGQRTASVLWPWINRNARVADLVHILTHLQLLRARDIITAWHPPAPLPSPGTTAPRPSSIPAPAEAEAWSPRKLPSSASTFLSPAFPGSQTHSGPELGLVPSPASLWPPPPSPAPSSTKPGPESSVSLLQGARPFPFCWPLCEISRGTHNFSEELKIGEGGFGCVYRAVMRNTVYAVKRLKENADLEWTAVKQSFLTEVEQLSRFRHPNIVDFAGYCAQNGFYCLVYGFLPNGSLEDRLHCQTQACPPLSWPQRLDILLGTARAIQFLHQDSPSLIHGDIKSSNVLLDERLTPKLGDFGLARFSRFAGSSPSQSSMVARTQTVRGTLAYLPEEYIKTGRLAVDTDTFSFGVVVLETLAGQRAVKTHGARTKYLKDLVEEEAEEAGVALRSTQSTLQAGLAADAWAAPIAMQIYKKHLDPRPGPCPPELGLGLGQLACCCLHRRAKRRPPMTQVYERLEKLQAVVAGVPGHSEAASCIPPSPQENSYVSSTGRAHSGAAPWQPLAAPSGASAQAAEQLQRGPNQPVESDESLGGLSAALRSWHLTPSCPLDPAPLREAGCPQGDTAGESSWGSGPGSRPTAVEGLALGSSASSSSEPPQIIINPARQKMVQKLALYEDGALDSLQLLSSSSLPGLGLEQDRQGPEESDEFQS

For the compound `CC1CC(=O)NN=C1c1ccc2nc(-c3cc(-c4cnn(CCO)c4)cnc3N)[nH]c2c1` (stereo not shown) [Compound A29, 6-(2-{2-amino-5-[1-(2-hydroxyethyl)-1H-pyrazol-4-yl]pyridin-3-yl}-3H-benzimidazol-5-yl)-5-methyl-4,5-dihydro-2H-pyridazin-3-one], the IC50 against PDK1 [1] is 1 to 100 nM; at PDK1 [2], over 10000 nM.

Turning to `C[C@@H]1CC(=O)NN=C1c1ccc2nc(-c3cc(-c4cnn(C)c4)cnc3N)[nH]c2c1` (single isomer, unassigned) [Compound A2], the IC50 was in the range of 1 to 100 nM against PDK1 [1] and 100 to 10000 nM at PDK1 [2].

Regarding `COc1ccc2nc(-c3cc(-c4cnn(C(C)C)c4)cnc3N)[nH]c2c1` [Compound A107, 5-(1-Isopropyl-1H-pyrazol-4-yl)-3-(6-methoxy-1H-benzimidazol-2-yl)pyridin-2-ylamine], the IC50 against IRAK-1 was 1 to 100 nM; against IRAK-4 [3] it was 1 to 100 nM; against IRAK-4 [4], 100 to 10000 nM.

Turning to `CC1CC(=O)NN=C1c1ccc2[nH]c(-c3cc(-c4cnn(C5CCN(C)CC5)c4)cnc3N)nc2c1` (stereo not shown) [Compound A16], the IC50 against PDK1 [1] is 1 to 100 nM; on PDK1 [2], over 10000 nM.

Consider `CCCn1cc(-c2cnc(N)c(-c3nc4ccccc4[nH]3)c2)cn1` [Compound A44], for which the IC50 against IRAK-1, at IRAK-4 [3] and at IRAK-4 [4] was 100 to 10000 nM each time.

Consider `CN(C)c1ccc2nc(-c3cc(-c4cnn(C)c4)cnc3N)[nH]c2c1` [Compound A68], for which the IC50 against PDK1 [1] was 1 to 100 nM; against PDK1 [2] it was over 10000 nM.

Consider `Nc1ncc(-c2cnn(C3CCNCC3)c2)cc1-c1nc2cc(OC(F)(F)F)ccc2[nH]1` [Compound A67], for which the results for the IC50 at PDK1 [1] and against PDK1 [2] were 1 to 100 nM and 100 to 10000 nM, respectively.

Turning to `CCC1CC(=O)NN=C1c1ccc2[nH]c(-c3cc(-c4cnn(C)c4)cnc3N)nc2c1` (stereo not shown) [Compound A4, 6-{2-[2-Amino-5-(1-methyl-1H-pyrazol-4-yl)-pyridin-3-yl]-1H-benzimidazol-5-yl}-5-ethyl-4,5-dihydro-2H-pyridazin-3-one], the IC50 was in the range of 1 to 100 nM at PDK1 [1] and 100 to 10000 nM against PDK1 [2].

As for `COCCCn1cc(-c2cnc(N)c(-c3nc4cc(C5=NNC(=O)CC5C)ccc4[nH]3)c2)cn1` (stereo not shown) [Compound A13, 6-(2-{2-Amino-5-[1-(3-methoxypropyl)-1H-pyrazol-4-yl]-pyridin-3-yl}-1H-benzimidazol-5-yl)-5-methyl-4,5-dihydro-2H-pyridazin-3-one], the values for the IC50 at PDK1 [1] and at PDK1 [2] were 1 to 100 nM and 100 to 10000 nM, respectively.

As to `COc1ccc2nc(-c3cc(-c4cnn(C5CCN(C)CC5)c4)cnc3N)[nH]c2c1` [Compound A106, 3-(6-Methoxy-1H-benzimidazol-2-yl)-5-[1-(1-methyl-piperidin-4-yl)-1H-pyrazol-4-yl]pyridin-2-ylamine], the figures for the IC50 at PDK1 [1] and against PDK1 [2] were 1 to 100 nM and over 10000 nM, respectively.

Regarding `C[C@H]1CC(=O)NN=C1c1ccc2nc(-c3cc(-c4cnn(C)c4)cnc3N)[nH]c2c1` (single isomer, unassigned) [Compound A3], the IC50 was 1 to 100 nM at PDK1 [1] and over 10000 nM against PDK1 [2].

In the case of `COCCn1cc(-c2cnc(N)c(-c3nc4cc(C5=NNC(=O)CC5C)ccc4[nH]3)c2)cn1` (stereo not shown) [Compound A12], the results for the IC50 against PDK1 [1] and on PDK1 [2] were 1 to 100 nM and 100 to 10000 nM, respectively.

Consider `CC1CC(=O)NN=C1c1ccc2[nH]c(-c3cc(-c4cnn(CCN(C)C)c4)cnc3N)nc2c1` (stereo not shown) [Compound A15, 6-(2-{2-Amino-5-[1-(2-dimethylaminoethyl)-1H-pyrazol-4-yl]pyridin-3-yl}-1H-benzimidazol-5-yl)-5-methyl-4,5-dihydro-2H-pyridazin-3-one], for which the figures for the IC50 on PDK1 [1] and on PDK1 [2] were 1 to 100 nM and over 10000 nM, respectively.
